# Results as given in patent US12643882B2, “Inhibitors of human respiratory syncytial virus and metapneumovirus” (priority 2022, dated 2026).
# Like-named read-outs stand apart in the source and are kept apart here.
# Assays:
# hMPV-GFP virus = assay: microbe, parasite or virus in culture; format: cell-based, human metapneumovirus
# Protocol: GFP expressing rgHMPV #3 p3 was generated in Dr. Buchholz's lab (Biacchesi S. et al., J Virol. 2007 June; 81(11): 6057-6067) and propagated in VERO cells (ATCC Cat #CCL-81) with a Multiplicity of Infection (MOI) of 0.1. Virus was harvested 4 days after infection by collecting cultured material and was freeze-thaw cycled in liquid nitrogen twice. Working virus stocks were generated from thawing frozen samples in 37° C. water bath, which were centrifuged at 218 g for 15 min at 4° C. 1/10 of 10×SPG (Biological Industries 06-3061-01-5A) were added and then mixed. The supernatant was aliquoted, frozen in liquid nitrogen, and then transferred to a −80° C. freezer for storage. Virus titer was determined by performing titration test in 96-well plates and calculate approximate virus titer using GFP event/well data.
# Compound plates were prepared by dispensing compounds dissolved in DMSO into wells of a 384 well Corning 3985 polystyrene flat clear bottom optical imaging microplate (202.5 nL/well) using an ECHO acoustic dispenser. Each compound was tested in 10-point serial 3-fold dilution (typical final concentrations: 40,300 nM-2 nM). […] Continuous culture of VERO cells was maintained in complete culture media (OptiMEM supplemented with 2 mM GlutaMAX™ and 100 U/ml Penicillin-Streptomycin). To set up the assay, VERO cells were trypsinized with 0.25% Trypsin-EDTA until cells were dislodged, then cells were re-suspended with 1 mL FBS. Cells were spun down at 300 g for 5 minutes and cells were washed twice with culture media and counted using default parameters on ViCell. Cells were then diluted to 100,000 cells/mL (5,000 cells/50 μL) in complete culture media+TrypLE Select (80 μL/mL). hMPV-GFP virus was added to cells at 125,000 pfu/mL (MOI=1.25) and were mixed by gentle inversion. 10 μL/well of 100% DMSO was dispensed to CellTiter-Glo (CTG) assay Max_E controls wells. Cells were dispensed at 50 μL/well using Bravo and 50 μL filtered tips into compound plates. Plates were covered with MicroClime lids and loaded with 7.5 mL of assay media to minimize evaporation. Plates were lightly shaken for 10 minutes at room temperature and then incubated at 37° C. and 5% CO2 for 48 hrs. Following incubation, distinct GFP-expressing cells were counted using an Acumen imaging system with appropriate settings. A same-well CTG assay was performed by adding 10 μL/well reconstituted CellTiter-Glo reagent (Promega G7573) and plates were read on PerkinElmer Envision according to manufacturer's instructions. Raw data were loaded and analyzed in ActivityBase. Antiviral IC50 and cytotoxicity CC50 values were determined using a 4 parameter logistic fit based on the Levenberg-Marquardt algorithm. Model: 205-4 Parameter Logistic. • References: Wen Z, Citron M, Bett A J, Espeseth A S, Vora K A, Zhang L, DiStefano D J. Development and application of a higher throughput RSV plaque assay by immunofluorescent imaging. J Virol Methods. 2019 January; 263:88-95. doi: 10.1016/j.jviromet.2018.10.022. Epub 2018 Oct. 28. PMD: 30381239. • Biacchesi S, Murphy B R, Collins P L, Buchholz U J. Frequent frameshift and point mutations in the SH gene of human metapneumovirus passaged in vitro. J Virol. 2007 June; 81(11):6057-67. doi: 10.1128/JVL.00128-07. Epub 2007 Mar. 21. PMID: 17376897; PMCID: MC 1900297. Assay Data
# RSV-A2-GFP virus = assay: microbe, parasite or virus in culture; format: cell-based, Human Respiratory Syncytial Virus
# Protocol: To set up the assay, ARF vials were thawed in a 37° C. water bath and a control compound was resuspended in assay media DMEM (Dulbecco's Modified Eagle Medium) containing 2% FBS, 100 U/ml Penicillin-Streptomycin.
# GFP sequence was derived from pJTI™ R4 Dest CMV N-EmGFP pA Vector (Invitrogen) and was cloned into the intergenic sequence between wild-type RSV-A2 P and M genes using standard recombineering techniques. Recombinant RSV-A2-GFP was propagated in Hep2 cells (human cells contain HeLa marker chromosomes and were derived via HeLa contamination, ATCC CCL-23) with a Multiplicity of Infection (MOI) of 0.1. Virus was harvested 3 days after infection by collecting all culture material and then freeze-thawing the mixture for 5 min. Working virus stocks were generated by thawing frozen viral cultures in 37° C. water bath, which were centrifuged at 218 g for 15 min at 4° C. 1/10 of 10×SPG (Biological Industries 06-3061-01-5A) were added and then mixed. The supernatant was aliquoted, frozen in liquid nitrogen, and then transferred to a −80° C. freezer for storage. Virus titer was determined by automated plaque assay in HEp-2 cells following methods described previously (Wen Z. et al.; 2019).
# Calu-1 cells were purchased from ATCC (Cat #HTB-54) and were expanded in growth media (DMEM containing 10% FBS, 100 U/ml Penicillin-Streptomycin). To make ARF, cell culture media was removed and discarded and the cell layer was briefly rinsed with PBS to remove serum. 2.5 mL of TrypLE Express solution were added and cells incubated until dislodged, to which growth media was added and the cells were resuspended by gentle pipetting. Cells were counted for concentration and viability as determined by ViCell. Cells were centrifuged at RT, 300 g for 5 minutes to pellet cells. The supernatant was gently aspirated and the pellet was flicked to loosen cells. Cells were resuspended in an appropriate volume of freezing medium (DMEM containing 10% DMSO, 10% FBS, 100 U/ml Penicillin-Streptomycin) to achieve a concentration of 5×10^6 cells/mL. 1 mL aliquots of the cell suspension were transferred to freezing vials. The vials were put into an upright container in a −80° C. freezer overnight before transferring vials to liquid nitrogen for storage.
# Assay ready freezedown (ARF, generation described separately) Calu-1 cells (ATCC HTB-54) were used. Compound plates were prepared by dispensing compounds dissolved in DMSO into the wells of a 384 well Corning® 3985 plate with an ECHO acoustic dispenser and compounds were tested in 10-point serial 3-fold dilution. […] To set up the assay, ARF vial(s) were thawed in a 37° C. water bath and were then resuspended into assay media (DMEM containing 2% FBS, 100 U/ml Penicillin-Streptomycin). Cells were counted using default parameters on ViCell and diluted to 20,000 cells/mL in assay media. RSV-A2-GFP virus was added to cells at 24,000 pfu/ml (MOI=1.2) and mixed by gentle inversion. 10 μL/well of 100% DMSO was dispensed as CellTiter-Glo (CTG) assay Max_E controls wells. The cells were dispensed at 50 μL/well using Bravo with 50 μL filtered tips into compound plates. Plates were covered with MicroClime lids, loaded with 7.5 mL of assay media to minimize evaporation, and were incubated at 37° C. and 5% CO2 for 96 hrs. Following incubation, distinct, GFP-expressing cells were counted using an Acumen imaging system with appropriate settings. A same-well CTG assay was performed by adding 10 μL/well reconstituted CellTiter-Glo reagent (Promega G7573) and plates were read on PerkinElmer Envision according to manufacturer's instructions. Raw data were loaded and analyzed in ActivityBase. Antiviral IC50 and cytotoxicity CC50 values were determined using a 4 parameter logistic fit based on the Levenberg-Marquardt algorithm. Model: 205-4 Parameter Logistic.
# [1] = human metapneumovirus, Vero, 48 h, read-out: hMPV EC50, VERO cells infected with hMPV-GFP, 48 hrs, GFP-expressing cells counted
# [2] = human respiratory syncytial virus, Calu-1, 96 h, read-out: RSV EC50, Calu-1 cells infected with RSV-A2-GFP, 96 hrs, GFP-expressing cells counted
# [3] = VERO cells infected with hMPV-GFP, 48 hrs, GFP-expressing cells counted, read-out: hMPV EC50
# [4] = Calu-1 cells infected with RSV-A2-GFP, 96 hrs, GFP-expressing cells counted, read-out: RSV EC50
# [5] = read-out: hMPV EC50, VERO cells infected with hMPV-GFP, 48 hrs, GFP-expressing cells counted
# [6] = read-out: RSV EC50, Calu-1 cells infected with RSV-A2-GFP, 96 hrs, GFP-expressing cells counted
Structure (SMILES),EC50 (hMPV-GFP virus; [1]) [µM],EC50 (RSV-A2-GFP virus; [2]) [µM],EC50 (hMPV-GFP virus; [5]) [µM],EC50 (RSV-A2-GFP virus; [6]) [µM],further results
"Cc1nc(-c2ncccn2)sc1C(=O)N1C[C@@H]2[C@H](C1)[C@H]2Oc1cc(C(C)(N)CO)cc(-c2ccc(F)cc2)n1 (single isomer, unassigned; enantiomer 1) [Example 113A]",> 0.1,< 0.01,,,
"CCC(C)(N)c1cc(OC2[C@H]3CN(C(=O)c4cn(-c5ncccn5)nc4C)C[C@@H]23)nc(-c2ccc(F)cc2)c1 (single isomer, unassigned; enantiomer 1) [Example 116A]",,,,,EC50 (hMPV-GFP virus; [3]): > 0.1 µM; EC50 (RSV-A2-GFP virus; [4]): < 0.01 µM
"CCc1nc(-c2ncccn2)sc1C(=O)N1C[C@@H]2[C@H]1C[C@H]2Oc1cc(C(C)(C)N)cc(-c2ccc(F)cc2)n1 (single isomer, unassigned; enantiomer 2) [Example 3]",> 0.1,< 0.01,,,
"Cn1nc(-c2ncccn2)cc1C(=O)N1C[C@@H]2[C@H]1C[C@H]2Oc1cc(C(C)(C)N)cc(-c2ccc(F)cc2)n1 (single isomer, unassigned; enantiomer 2) [Example 4]",> 0.1,0.01 to 0.1,,,
"CCc1nn(-c2ncccn2)cc1C(=O)N1C[C@@H]2[C@H]1C[C@H]2Oc1cc(C(C)(C)N)cc(-c2ccc(F)cc2)n1 (single isomer, unassigned; enantiomer 2) [Example 5]",> 0.1,< 0.01,,,
"CC(C)(N)c1cc(O[C@@H]2C[C@@H]3[C@H]2CN3C(=O)c2cn(-c3ncccn3)nc2C2CC2)nc(-c2ccc(F)cc2)c1 (single isomer, unassigned; enantiomer 2) [Example 6]",> 0.1,< 0.01,,,
"CC(O)c1nn(-c2ncccn2)cc1C(=O)N1C[C@@H]2C(Oc3cc(C(C)(C)N)cc(-c4ccc(F)c(F)c4)n3)[C@@H]2C1 (single isomer, unassigned; enantiomer 2) [Example 96B]",,,,,EC50 (hMPV-GFP virus; [3]): > 0.1 µM; EC50 (RSV-A2-GFP virus; [4]): < 0.01 µM
"Cc1nc(-c2ncccn2)sc1C(=O)N1C[C@H]2[C@H](Oc3cc(C(C)(C)N)cc(-c4ccc(F)cc4)n3)[C@@]2(C)C1 (single isomer, unassigned; enantiomer 2) [Example 103B]",0.01 to 0.1,< 0.01,,,
"Cn1nc(-c2ncccn2)cc1C(=O)N1C[C@H]2[C@H](Oc3cc(C(C)(C)N)cc(-c4ccc(F)cc4)n3)[C@@]2(C)C1 (single isomer, unassigned; enantiomer 2) [Example 104B]",,,> 0.1,< 0.01,
"Cn1nc(-c2ncccn2)cc1C(=O)N1C[C@H]2[C@H](Oc3cc(C(C)(C)N)cc(-c4ccc(F)c(F)c4)n3)[C@@]2(C)C1 (single isomer, unassigned; enantiomer 2) [Example 105B]",,,0.01 to 0.1,< 0.01,
"Cc1nn(-c2ncccn2)cc1C(=O)N1C[C@H]2[C@H](Oc3cc(C(C)(C)N)cc(-c4ccc(F)c(F)c4)n3)[C@@]2(C)C1 (single isomer, unassigned; enantiomer 2) [Example 106B]",,,0.01 to 0.1,< 0.01,
"Cc1nn(-c2ncccn2)cc1C(=O)N1C[C@H]2[C@H](Oc3cc(C(C)(C)N)cc(-c4ccc(F)cc4)n3)[C@@]2(C)C1 (single isomer, unassigned; enantiomer 2) [Example 107B]",,,> 0.1,< 0.01,
"Cn1nc(-c2ncccn2)cc1C(=O)N1C[C@H]2[C@H](Oc3cc(C(C)(C)N)cc(-c4ccc(F)cc4F)n3)[C@@]2(C)C1 (single isomer, unassigned; enantiomer 2) [Example 108B]",,,> 0.1,< 0.01,
"Cc1nn(-c2ncccn2)cc1C(=O)N1C[C@H]2[C@H](Oc3cc(C(C)(C)N)cc(-c4ccc(F)cc4F)n3)[C@@]2(C)C1 (single isomer, unassigned; enantiomer 2) [Example 109B]",,,0.01 to 0.1,< 0.01,
"Cn1nc(-c2ncccn2)cc1C(=O)N1C[C@H]2[C@H](Oc3cc(C(C)(C)N)cc(-c4ccc(C(F)(F)F)cc4)n3)[C@@]2(C)C1 (single isomer, unassigned; enantiomer 2) [Example 110B]",,,> 0.1,< 0.01,
"Cc1nn(-c2ncccn2)cc1C(=O)N1C[C@H]2[C@H](Oc3cc(C(C)(C)N)cc(-c4ccc(C(F)(F)F)cc4)n3)[C@@]2(C)C1 (single isomer, unassigned; enantiomer 2) [Example 111B]",,,0.01 to 0.1,< 0.01,
"Cc1nc(-c2ncccn2)sc1C(=O)N1C[C@@H]2C(Oc3cc(C(C)(N)CO)cc(-c4ccc(F)cc4)n3)[C@@H]2C1 (single isomer, unassigned; enantiomer 2) [Example 113B]",,,,,EC50 (hMPV-GFP virus; [3]): > 0.1 µM; EC50 (RSV-A2-GFP virus; [4]): < 0.01 µM
"CCC(C)(N)c1cc(OC2[C@H]3CN(C(=O)c4cn(-c5ncccn5)nc4C)C[C@@H]23)nc(-c2ccc(F)cc2)c1 (single isomer, unassigned; enantiomer 2) [Example 116B]",,,,,EC50 (hMPV-GFP virus; [3]): > 0.1 µM; EC50 (RSV-A2-GFP virus; [4]): < 0.01 µM
